Data as given in the NIST ThermoML archive (doi:10.1021/je030102f).

Experiment: xn = mol fraction of the nth substance listed
Settings: 101.33 kPa, Liquid, vibrating tube

CCC(=O)O [propanoic acid] + CC(C)=O
mass density [kg/m3]
Settings | x2 = 0 | x2 = 0.1014 | x2 = 0.1991 | x2 = 0.3046 | x2 = 0.4011 | x2 = 0.5001 | x2 = 0.603 | x2 = 0.6887 | x2 = 0.7703 | x2 = 0.8987
283.15 K | 1004.11 | 987.375 | 970.353 | 951.246 | 933.088 | 913.785 | 892.899 | 874.585 | 856.85 | 826.598
288.15 K | 998.688 | 982.013 | 965.023 | 945.944 | 927.765 | 908.446 | 887.52 | 869.18 | 851.407 | 821.062
293.15 K | 993.261 | 976.644 | 959.68 | 940.613 | 922.423 | 903.081 | 882.117 | 863.74 | 845.923 | 815.482
298.14 K | – | – | 954.344 | – | 917.072 | 897.705 | – | 858.28 | 840.415 | 809.87
298.15 K | 987.847 | 971.282 | – | 935.277 | – | – | 876.699 | – | – | –
303.14 K | 982.44 | 965.92 | 948.999 | 929.933 | 911.708 | 892.312 | 871.26 | 852.794 | 834.877 | 804.221
308.15 K | 977.037 | 960.555 | 943.653 | 924.579 | 906.33 | 886.9 | 865.798 | 847.276 | 829.305 | 798.532
313.14 K | 971.635 | 955.192 | – | – | – | – | 860.309 | – | 823.695 | –
313.15 K | – | – | 938.294 | 919.21 | 900.935 | 881.462 | – | 841.731 | – | 792.797
318.14 K | 966.24 | 949.825 | 932.928 | 913.828 | 895.523 | 876.007 | 854.791 | 836.154 | 818.051 | 787.018
323.14 K | 960.843 | – | 927.551 | 908.43 | 890.087 | – | – | – | 812.366 | 781.194
323.15 K | – | 944.448 | – | – | – | – | 849.244 | 830.541 | – | –

CCC(=O)O [propanoic acid] + O
mass density [kg/m3]
Settings | x1 = 0.1298 | x1 = 0.2029 | x1 = 0.3012 | x1 = 0.4007 | x1 = 0.5008 | x1 = 0.5989 | x1 = 0.6974 | x1 = 0.7965 | x1 = 0.8915 | x1 = 1
283.15 K | 1026.89 | 1033.97 | 1034.47 | 1032.63 | 1029.26 | 1025.17 | 1020.51 | 1015.43 | 1010.32 | 1004.11
288.14 K | – | – | – | 1027.99 | – | – | – | – | 1005.04 | –
288.15 K | 1023.97 | 1030.05 | 1029.92 | – | 1024.44 | 1020.22 | 1015.46 | 1010.26 | – | 998.688
293.14 K | – | 1026.08 | 1025.58 | – | – | – | 1010.39 | – | – | –
293.15 K | 1020.98 | – | – | 1023.31 | 1019.59 | 1015.26 | – | 1005.1 | 999.76 | 993.261
298.14 K | – | 1022.05 | 1021.14 | – | 1014.72 | – | 1005.31 | 999.927 | – | –
298.15 K | 1017.85 | – | – | 1018.61 | – | 1010.28 | – | – | 994.478 | 987.847
303.14 K | 1014.61 | – | 1016.76 | 1013.88 | 1009.8 | 1005.29 | – | 994.744 | – | 982.44
303.15 K | – | 1017.97 | – | – | – | – | 1000.22 | – | 989.192 | –
308.14 K | – | – | – | – | – | – | – | 989.551 | – | –
308.15 K | 1011.28 | 1013.84 | 1012.25 | 1009.12 | 1004.17 | 1000.27 | 995.12 | – | 983.905 | 977.037
313.14 K | 1007.85 | 1009.64 | 1007.69 | – | 999.956 | 995.242 | 990.001 | – | 978.613 | 971.635
313.15 K | – | – | – | 1004.33 | – | – | – | 984.345 | – | –
318.14 K | 1004.32 | 1005.39 | 1003.09 | 999.507 | 994.902 | 990.186 | 984.864 | 979.126 | 973.307 | 966.24
323.14 K | 1000.71 | 1001.09 | 998.434 | 994.651 | – | 985.106 | – | 973.895 | 967.999 | –
323.15 K | – | – | – | – | 990.008 | – | 979.705 | – | – | 960.843
